This is an account of results in US5153203A, “Quinolone derivatives and salts thereof, preparation processes thereof, and antibacterial agents containing the same” (Wakunaga Seiyaku Kabushiki Kaisha, priority 1989, dated 1992).

Converted amounts (≈) assume the structure as drawn.

For series [1], the system named is P. aeruginosa (IFO 3445). Put plainly: Minimum inhibitory concentration (MIC), standard method of the Japan Society of Chemotherapy. The series is classed as cell-based. Conditions: Pseudomonas aeruginosa, IFO3445. Here is the method:
(§1) With respect to certain representative compounds among the compounds [I] of the present invention, their minimum inhibitory concentrations (MIC; μg/ml) were measured in accordance with the standard method established by the Japan Society of Chemotherapy [CHEMOTHERAPY, 29(1), 76-79 (1981]. The results are summarized in Table 1, in which the compound numbers are as shown in examples.

Series [2] has as its system S. aureus 209 P (IFO 12732). The series is described as above. The series is classed as cell-based. Conditions: Staphylococcus aureus, IFO12732. How it is done:
as §1

The test system of series [3] is E. coli NIH JC-2 (IFO 12734). Described as above. The format is cell-based. Conditions: Escherichia coli, IFO12734. How it is done:
as §1

Series [4] is described as follows: Partition coefficient, phosphate buffer/n-octanol. The format is physicochemical. Conditions: 50 mM phosphate buffer (pH 7.4, μ=0.15)/n-octanol. Here is the method: Following the method proposed by Akira Tsuji et al. in Antimicrob. Agents Chemother., 32. 190-194 (1988), 50 mM phosphate buffer (pH 7.4, μ=0.15)/n-octanol partition coefficients were measured.

Regarding `CC1CN(c2c(F)cc3c(=O)c(C(=O)O)cn(C4CC4)c3c2F)CO1` (centres unmarked) [Compound 67], the MIC (commonly the least concentration at which growth counts as inhibited) was 0.78 µg/mL (≈ 2.23 µM) in series [1], 0.1 µg/mL (≈ 0.285 µM) in series [2] and 0.2 µg/mL (≈ 0.571 µM) in series [3].

As for `CN(C)CC1CN(c2cc3c(cc2F)c(=O)c(C(=O)O)cn3C2CC2)CO1` (centres unmarked) [Compound 60], the MIC in series [1] was found to be 1.56 µg/mL (≈ 4.16 µM); in series [2], 0.2 µg/mL (≈ 0.533 µM); in series [3], 0.2 µg/mL (≈ 0.533 µM).

Consider `O=C(O)c1cn(C2CC2)c2c(F)c(N3COC(CO)C3)c(F)cc2c1=O` (centres unmarked) [Compound 74, 1-Cyclopropyl-6,8-difluoro-7-(5-hydroxymethyl-3-oxazolidinyl)-1,4-dihydro-4-oxoquinoline-3-carboxylic acid], for which the results for the MIC in series [1], in series [2] and in series [3] were 0.78 µg/mL (≈ 2.13 µM), 0.1 µg/mL (≈ 0.273 µM) and 0.1 µg/mL (≈ 0.273 µM), respectively.

Consider `Nc1c(F)c(OC2CCNCC2)c(F)c2c1c(=O)c(C(=O)O)cn2C1CC1` [Compound 19], for which the logD (usually the decadic logarithm of the distribution of all forms, ionised or not, between an organic phase and buffer at a given pH) in series [4] is -0.693.

With `Cl.O=C(O)c1cn(-c2ccc(F)cc2F)c2nc(OC3CCNC3)c(F)cc2c1=O` (centres unmarked) [Compound 10, 7-(3-Pyrrolidinyloxy)-1-(2,4-difluorophenyl)-6-fluoro-1,4-dihydro-4-oxo-1,8-naphthyridine-3-carboxylic acid hydrochloride], the MIC in series [1] came out at 3.13 µg/mL; in series [2], 1.56 µg/mL; in series [3], 0.78 µg/mL.

On to `Cl.O=C(O)c1cn(C2CC2)c2cc(OC3CCNC3)c(F)cc2c1=O` (centres unmarked) [Compound 1, 7-(3-Pyrrolidinyloxy)-1-cyclopropyl-6-fluoro-1,4-dihydro-4-oxoquinoline-3-carboxylic acid hydrochloride], for which the results for the minimal inhibitory concentration (MIC) in series [1], in series [2] and in series [3] were 3.13 µg/mL, 3.13 µg/mL and 0.39 µg/mL, respectively.

Take `CN(C)CC1CN(c2c(F)cc3c(=O)c(C(=O)O)cn(C4CC4)c3c2F)CO1` (centres unmarked) [Compound 69]: the minimum inhibitory concentration (MIC) in series [1] turned out to be 1.56 µg/mL (≈ 3.97 µM); in series [2], 0.2 µg/mL (≈ 0.508 µM); in series [3], 0.2 µg/mL (≈ 0.508 µM).

For the compound `CC1COc2c(OC3CCNC3)c(F)cc3c(=O)c(C(=O)O)cn1c23.Cl` (centres unmarked) [Compound 9, 10-(3-Pyrrolidinyloxy)-9-fluoro-2,3-dihydro-3-methyl-7-oxo-7H-pyrido[1,2,3-de][1,4]-benzoxazine-6-carboxylic acid hydrochloride], the minimal inhibitory concentration (MIC) in series [1] was determined as 25 µg/mL; in series [2], 1.56 µg/mL; in series [3], 1.25 µg/mL.

As to `O=C(O)c1cn(C2CC2)c2cc(N3CCOC3)c(F)cc2c1=O` [Compound 57, 1-Cyclopropyl-6-fluoro-7-(3-oxazolidinyl)-1,4-dihydro-4-oxoquinoline-3-carboxylic acid], the MIC was 0.78 µg/mL (≈ 2.45 µM) in series [1], 0.1 µg/mL (≈ 0.314 µM) in series [2] and 0.2 µg/mL (≈ 0.628 µM) in series [3].

Consider `CCn1cc(C(=O)O)c(=O)c2cc(F)c(OC3CCN(C)CC3)cc21` [Compound 11, 7-(1-Methyl-4-piperidyloxy)-1-ethyl-6-fluoro-1,4-dihydro-4-oxoquinoline-3-carboxylic acid], for which the minimal inhibitory concentration (MIC) in series [1] turned out to be 12.5 µg/mL (≈ 35.9 µM); in series [2] it was 1.56 µg/mL (≈ 4.48 µM); in series [3] it was 0.78 µg/mL (≈ 2.24 µM).

For the compound `CCOC(=O)c1cn(C2CC2)c2c(F)c(N3COC(CN(C)C)C3)c(F)cc2c1=O` (centres unmarked) [Compound 64], the logD in series [4] was -0.316.

As to `Cl.Nc1c(F)c(OC2CCNC2)c(F)c2c1c(=O)c(C(=O)O)cn2C1CC1` (centres unmarked) [Compound 8, 7-(3-Pyrrolidinyloxy)-1-cyclopropyl-5-amino-6,8-difluoro-1,4-dihydro-4-oxoquinoline-3-carboxylic acid hydrochloride], the MIC turned out to be 0.78 µg/mL in series [1], 0.39 µg/mL in series [2] and 0.1 µg/mL in series [3].

On to `CCn1cc(C(=O)O)c(=O)c2cc(F)c(N3CCOC3)cc21` [Compound 58], for which the MIC in series [1] came to 6.25 µg/mL (≈ 20.4 µM); in series [2], 0.39 µg/mL (≈ 1.27 µM); in series [3], 0.78 µg/mL (≈ 2.55 µM).

Turning to `Cl.O=C(O)c1cn(C2CC2)c2c(F)c(OC3CCNC3)c(F)cc2c1=O` (centres unmarked) [Compound 2, 7-(3-Pyrrolidinyloxy)-1-cyclopropyl-6,8-difluoro-1,4-dihydro-4-oxoquinoline-3-carboxylic acid hydrochloride], the results for the MIC in series [1], in series [2] and in series [3] were 0.78 µg/mL, 0.78 µg/mL and 0.2 µg/mL, respectively.

As for `CC1CN(c2cc3c(cc2F)c(=O)c(C(=O)O)cn3C2CC2)CO1` (centres unmarked) [Compound 59], the minimum inhibitory concentration (MIC) in series [1] came out at 0.78 µg/mL (≈ 2.35 µM); in series [2], 0.1 µg/mL (≈ 0.301 µM); in series [3] it was 0.2 µg/mL (≈ 0.602 µM).

Regarding `O=C(O)c1cn(C2CC2)c2c(F)c(N3CCOC3)c(F)cc2c1=O` [Compound 66, 1-Cyclopropyl-6,8-difluoro-7-(3-oxazolidinyl)-1,4-dihydro-4-oxoquinoline-3-carboxylic acid], the MIC in series [1] amounted to 1.56 µg/mL (≈ 4.64 µM); in series [2], 0.2 µg/mL (≈ 0.595 µM); in series [3], 0.2 µg/mL (≈ 0.595 µM).

Regarding `CC1COCN1c1c(F)cc2c(=O)c(C(=O)O)cn(C3CC3)c2c1F` (centres unmarked) [Compound 68], the MIC in series [1] worked out at 3.13 µg/mL (≈ 8.93 µM); in series [2], 0.2 µg/mL (≈ 0.571 µM); in series [3] it was 0.78 µg/mL (≈ 2.23 µM).

Turning to `O=C(O)c1cn(C2CC2)c2c(F)c(N3CCCOC3)c(F)cc2c1=O` [Compound 76, Cyclopropyl-6,8-difluoro-7-(tetrahydro-1,3-oxazin)-3-yl-1,4-dihydro-4-oxoquinoline-3-carboxylic acid], the minimum inhibitory concentration (MIC) amounted to 3.13 µg/mL (≈ 8.93 µM) in series [1], 0.39 µg/mL (≈ 1.11 µM) in series [2] and 0.39 µg/mL (≈ 1.11 µM) in series [3].

As for `CC1COc2c(OC3CCN(C)CC3)c(F)cc3c(=O)c(C(=O)O)cn1c23` (centres unmarked) [Compound 12, 10-(1-Methyl-4-piperidyloxy)-9-fluoro-2,3-dihydro-3-methyl-7-oxo-7H-pyrido[1,2,3-de][1,4]-benzoxazine-6-carboxylic acid], the minimal inhibitory concentration (MIC) in series [1] was 12.5 µg/mL (≈ 33.2 µM); in series [2], 1.56 µg/mL (≈ 4.14 µM); in series [3], 1.56 µg/mL (≈ 4.14 µM).

Turning to `O=C(O)c1cn(C2CC2)c2c(F)c(N3CCOC3)c(F)c(F)c2c1=O` [Compound 72, 1-Cyclopropyl-5,6,8-trifluoro-7-(3-oxazolidinyl)-1,4-dihydro-4-oxoquinoline-3-carboxylic acid], the minimum inhibitory concentration (MIC) in series [1] was 3.13 µg/mL (≈ 8.83 µM); in series [2] it was 0.2 µg/mL (≈ 0.565 µM); in series [3], 0.39 µg/mL (≈ 1.1 µM).
